The record followed here is patent US20220315578A1, “BRD9 BIFUNCTIONAL DEGRADERS AND THEIR METHODS OF USE” (NOVARTIS AG, priority 2019, published 2022).

In the assay the target is T1, BRD9-GFP (Homo sapiens, UniProt Q9H8M2).
T1 construct: CHYSEL (2A cis-acting hydrolase element) remnant after GFP; mCherry is split off as a separate protein (C); expressed in transfected cells; host or cells: HEK293A cells (Invitrogen R70507), lentiviral transduction with pLenti6-BRD9-GFP-CHYSEL-mCherry, blasticidin selection
T1 sequence (Q9H8M2 1-597): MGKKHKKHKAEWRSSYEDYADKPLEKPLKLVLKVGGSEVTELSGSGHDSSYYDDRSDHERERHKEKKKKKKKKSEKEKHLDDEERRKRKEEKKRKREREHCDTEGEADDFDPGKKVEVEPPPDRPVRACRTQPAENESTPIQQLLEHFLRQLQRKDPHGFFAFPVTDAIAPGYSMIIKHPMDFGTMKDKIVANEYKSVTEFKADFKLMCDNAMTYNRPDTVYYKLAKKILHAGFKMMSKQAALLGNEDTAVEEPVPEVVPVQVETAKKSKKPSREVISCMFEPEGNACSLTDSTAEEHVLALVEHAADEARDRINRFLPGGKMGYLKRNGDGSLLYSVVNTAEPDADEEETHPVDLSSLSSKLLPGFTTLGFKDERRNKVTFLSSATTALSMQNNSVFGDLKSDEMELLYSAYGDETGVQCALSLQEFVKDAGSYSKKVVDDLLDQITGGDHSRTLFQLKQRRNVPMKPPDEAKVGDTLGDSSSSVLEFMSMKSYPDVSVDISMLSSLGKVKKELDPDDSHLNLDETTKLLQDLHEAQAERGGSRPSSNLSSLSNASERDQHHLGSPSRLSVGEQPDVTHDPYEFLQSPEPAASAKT
Nature of the assay: BRD9-GFP protein abundance flow cytometry assay in HEK293A cells. The class given is cell-based. The following applies: HEK293A-BRD9-GFP-CHYSEL-mCherry cells; for BRD9 Deg Amax %: 24 h, % protein remaining at the concentration at which maximum degradation is seen; for DC50: 24 h at 37° C., 10-point 1:3 dilution, concentration at which 50% maximal degradation was observed. The method in brief:
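HEK293A cells stably express bicistronic BRD9-GFP-CHYSEL-mCherry and received 24 h treatment at 37° C with a 10-point, 3-fold dilution series from […], in 0.1% DMSO and duplicate. Median GFP/mCherry ratio of 5,000 single cells by flow cytometry, normalized to mCherry-only cells (0%) and DMSO (100%), gave DC50 and Amax (% protein remaining).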
Background: In flow cytometry, cells or beads pass a laser one at a time.

For the compound `COc1cc(-c2cn(C)c(=O)c3cnccc23)c(OC)cc1CCN1CCC(OC2CCN(CCn3cccc(CN4CCC(=O)NC4=O)c3=O)CC2)CC1` [Compound C3, 1-((1-(2-(4-((1-(2,5-dimethoxy-4-(2-methyl-1-oxo-1,2-dihydro-2,7-naphthyridin-4-yl)phenethyl)piperidin-4-yl)oxy)piperidin-1-yl)ethyl)-2-oxo-1,2-dihydropyridin-3-yl)methyl)dihydropyrimidine-2,4(1H,3H)-dione], the “BRD9 Deg Amax %” value is recorded as 17.50% and the DC50 came out at 77 nM.
On to `COc1cc(-c2cn(C)c(=O)c3cnccc23)cc(OC)c1CCN1CCC(OC2CCN(CCn3cccc(CN4CCC(=O)NC4=O)c3=O)CC2)CC1` [Compound C4, 1-((1-(2-(4-((1-(2,6-dimethoxy-4-(2-methyl-1-oxo-1,2-dihydro-2,7-naphthyridin-4-yl)phenethyl)piperidin-4-yl)oxy)piperidin-1-yl)ethyl)-2-oxo-1,2-dihydropyridin-3-yl)methyl)dihydropyrimidine-2,4(1H,3H)-dione], for which the “BRD9 Deg Amax %” value was 19.82% and half-maximal degradation (DC50) was put at 17 nM.
On to `CCCCn1cc(-c2cc(OC)c(CN3CCC(OC4CCN(CCn5cccc(CN6CCC(=O)NC6=O)c5=O)CC4)CC3)cc2OC)c2ccncc2c1=O` [Compound D1, 1-((1-(2-(4-((1-(4-(2-butyl-1-oxo-1,2-dihydro-2,7-naphthyridin-4-yl)-2,5-dimethoxybenzyl)piperidin-4-yl)oxy)piperidin-1-yl)ethyl)-2-oxo-1,2-dihydropyridin-3-yl)methyl)dihydropyrimidine-2,4(1H,3H)-dione], for which the “BRD9 Deg Amax %” value came to 14.78% and the DC50 stood at 16 nM.
`CCCCn1cc(-c2cc(OC)c(CN3CCC(OC4CCN(CCn5cccc(CN6CCC(=O)NC6=O)c5=O)CC4)CC3)c(OC)c2)c2ccncc2c1=O` [Compound D2, 1-((1-(2-(4-((1-(4-(2-butyl-1-oxo-1,2-dihydro-2,7-naphthyridin-4-yl)-2,6-dimethoxybenzyl)piperidin-4-yl)oxy)piperidin-1-yl)ethyl)-2-oxo-1,2-dihydropyridin-3-yl)methyl)dihydropyrimidine-2,4(1H,3H)-dione]: the “BRD9 Deg Amax %” value is recorded as 13.05% and it took 15 nM to reach half-maximal degradation (DC50).
For `CCCCn1cc(-c2cc(OC)c(CCN3CCC(OC4CCN(CCn5cccc(CN6CCC(=O)NC6=O)c5=O)CC4)CC3)cc2OC)c2ccncc2c1=O` [Compound D3, 1-((1-(2-(4-((1-(4-(2-butyl-1-oxo-1,2-dihydro-2,7-naphthyridin-4-yl)-2,5-dimethoxyphenethyl)piperidin-4-yl)oxy)piperidin-1-yl)ethyl)-2-oxo-1,2-dihydropyridin-3-yl)methyl)dihydropyrimidine-2,4(1H,3H)-dione], the “BRD9 Deg Amax %” value is 17.62% and the DC50 is 47 nM.
`CCCCn1cc(-c2cc(OC)c(CCN3CCC(OC4CCN(CCn5cccc(CN6CCC(=O)NC6=O)c5=O)CC4)CC3)c(OC)c2)c2ccncc2c1=O` [Compound D4, 1-((1-(2-(4-((1-(4-(2-butyl-1-oxo-1,2-dihydro-2,7-naphthyridin-4-yl)-2,6-dimethoxyphenethyl)piperidin-4-yl)oxy)piperidin-1-yl)ethyl)-2-oxo-1,2-dihydropyridin-3-yl)methyl)dihydropyrimidine-2,4(1H,3H)-dione]: the “BRD9 Deg Amax %” value worked out at 16.34% and the DC50 was 3 nM.
As to `Cn1cc(-c2cc(F)c(CN3CCC(OC4CCN(CCn5cccc(CN6CCC(=O)NC6=O)c5=O)CC4)CC3)cc2F)c2ccncc2c1=O` [Compound E1, 1-((1-(2-(4-((1-(2,5-difluoro-4-(2-methyl-1-oxo-1,2-dihydro-2,7-naphthyridin-4-yl)benzyl)piperidin-4-yl)oxy)piperidin-1-yl)ethyl)-2-oxo-1,2-dihydropyridin-3-yl)methyl)dihydropyrimidine-2,4(1H,3H)-dione], the “BRD9 Deg Amax %” value came out at 19.40% and the DC50 was 6 nM.

The term DC50 denotes the concentration at which degradation of the target reaches its halfway point.
